These are literature values, as cited in US20060269582A1, “Arthropod repellent comprising extracts and/or parts of the plant vitex agnus-castus” (Alpha-Biocare GmbH, priority 2002, published 2006).

The structures appear in SMILES notation.

One data set has as its system ticks. The conditions noted are these: state of the art.
A further data set deals with ticks and mites. The conditions noted are these: state of the art.

Turning to `CCC(C)OC(=O)N1CCCCC1CCO` (stereo not shown) [Bayrepel], in the data set with ticks, the activity against ticks entry is “poor” and the “duration of protection against ticks” value is reported as “about two”.

On to `CCN(CC)C(=O)c1cccc(C)c1` [DEET, N,N-diethyl-m-toluamide], for which, in the data set on ticks and mites, the “efficiency / activity against ticks and mites” value is “low efficiency”. Take `CC1=C(C=O)C(CC=O)CC1` (stereo not shown) [2-(2-formyl-3-methyl-cyclopent-2-enyl)acetaldehyde]: the “efficiency / activity against ticks and mites” value in the data set with ticks and mites is reported as “low or even not there”.
